Here are results for 6 compounds from patent US20180071188A1, “COMPOSITION FOR THE PERMANENT DEFORMATION OF HAIR HAVING REDUCED ODOUR” (The Procter & Gamble Company, priority 2016, published 2018).

Data set [1] can be described thus: distribution coefficient log P (octanol/water). The format is physicochemical. Conditions: raw material of malodor suppressant system. An excerpt:
In the fields of organic and medicinal chemistry, a distribution (P) coefficient is the ratio of concentrations of a compound in the two phases of a mixture of two immiscible solvents at equilibrium. […] One of the solvents chosen is water while the second is octanol. […] The partition coefficient is the ratio of concentrations of un-ionized compound between the two solutions. The logarithm of the ratio of the concentrations of the un-ionized solute in the solvents is called log P:
The log P (octanol/water) is referred hereinafter as “log P”, unless otherwise specified.

Data set [2] is described as follows: density of malodor suppressant. The format is physicochemical. The note with it: 23° C., 1.013 bar. The method, then: All densities relate to a temperature of 23° C. and a pressure of 1.013 bar. Density measurements are typically performed via determining the weight and the volume of the compound to be measured, or according to any other processes known to the skilled person.

Data set [3] in a line: Test Procedure 2: panel test rating thiol malodor of permanent shaping premix mixed with malodor suppressant system. The note with it: scale 0 to 5 (0=no thiol smell, 5=harsh thiol smell); 5 panelists; premix + 0.7 wt.-% suppressant system; same rating immediately and 25 min after mixing. The method, then: A […] performed with 5 panelists with trained expertise in the classification of thiol malodour. The panelists received a mixture of the permanent shaping premix and 0.7 wt.-% of one malodor suppressant system, as described above (stirred by a single operator for all tests). Immediately and 25 min after mixing, the panelists were asked to rate the thiol malodor according to a scale of 0 to 5 (0=no thiol smell, 5=harsh thiol smell), the mixture being passed from panelist to panelist with an additional stirring for each of the panelists. The same odor rating is obtained immediately after mixing and 25 min after mixing.

In the case of `CCCCCCCCCCCCCC(=O)OC(C)C` [S1, isopropylmyristate], the logP (usually the decadic logarithm of the partition coefficient of the neutral form, usually between octanol and water) in data set [1] (octanol/water) was 7.41. Also, the density (commonly the mass of a sample divided by its volume) in data set [2] turned out to be 0.864 g/mL. Moreover, in data set [3], the “Odor (thiol malodor rating)” value came out at 3.
With `O=C(OCc1ccccc1)c1ccccc1` [S6, Benzyl benzoate], in data set [2], the density is given as 1.129 g/mL. For the same compound, in data set [3], the “Odor (thiol malodor rating)” value is on record as 3.
`CC1COCc2cc3c(cc21)C(C)(C)C(C)C3(C)C` (centres unmarked) [S3, Galaxolide] showed a logP in data set [1] of 5.93. This compound also returned a density in data set [2] of 0.946 g/mL. Besides, the “Odor (thiol malodor rating)” value in data set [3] is given as 1-2.
On to Operanide [S4], for which the “log P (octanol/water)” value in data set [1] was determined as 4.90. Moreover, the density in data set [2] is 1.01 g/mL. Besides, the “Odor (thiol malodor rating)” value in data set [3] was found to be 2.
For `CC1COC(C)(c2ccc3c(c2)C(C)(C)CCC3(C)C)O1` (centres unmarked) [S5, Okoumal], in data set [1], the “log P (octanol/water)” value amounted to 5.79. This compound also returned a density in data set [2] of 0.971 g/mL. Also, the “Odor (thiol malodor rating)” value in data set [3] is recorded as 3.
As to `O=C1CCCCCCCCC/C=C/CCCO1` [S2, Habanolide], the “log P (octanol/water)” value in data set [1] is 4.77. This compound showed a density in data set [2] of 0.901 g/mL. For the same compound, in data set [3], the “Odor (thiol malodor rating)” value was found to be 4.
